In patent US12004511B2, “Method of controlling weeds in warm season turfgrass” (SYNGENTA PARTICIPATIONS AG, priority 2017, dated 2024):

Assays:
[1] = system: dallisgrass (Paspalum dilatatum); assay: Dallisgrass control in bermudagrass; format: in vivo; conditions: two applications, 28 days after the first application
Text: Applications initiated on Oct. 1, 2014.
initiated in AL for dallisgrass control in bermudagrass on Oct. 28, 2013. Two applications were applied. Percent dallisgrass control was taken 28 days after the first application.

[2] = system: tropical signalgrass (Urochloa subquadripara); assay: Tropical signalgrass control in Bermudagrass plots; format: in vivo; conditions: 28 days after application
Text: Applications of pinoxaden, and pinoxaden plus cloquintocet were applied to various Bermudagrass plots with tropical […] present between August 11 and August 13. The plots were again evaluated 28 days following the application. The following percent weed controls were observed.

CCc1cc(C)cc(CC)c1-c1c(OC(=O)C(C)(C)C)n2n(c1=O)CCOCC2 [Pinoxaden, 8-(2,6-Diethyl-4-methylphenyl)-7-oxo-1,2,4,5-tetrahydro-7H-pyrazolo[1,2-d][1,4,5]oxadiazepin-9-yl-2,2-dimethylpropanoat]
% Control (28 Days AIA) ([1]; 45 g active/ha): 82%
% Control (28 Days AIA) ([1]; 90 g active/ha): 85%
% Control (28 Days AIA) ([2]; 70 g active/ha): 79.5%
% Control (28 Days AIA) ([2]; 140 g active/ha): 89.7%
